Tests used:
Assay type in all cases: in vivo
Kochia (Kochia scoparia) [1] = test: Test A preemergence
Procedure, shortened: (§1)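 Compounds were formulated in a non-phytotoxic solvent mixture with surfactant and applied as a preemergence directed soil spray after seeding, or sprayed postemergence over plants 2 to 10 cm tall at the one- to two-leaf stage. Evaluation after about 10 d compared treated with untreated controls, using a scale from 0 (no effect) to 100 (complete control).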

[2] = tested on: barnyardgrass (Echinochloa crus-galli); test: Test A preemergence
Procedure, shortened: as §1

[3] = tested on: giant foxtail (Setaria faberii); test: Test A preemergence
Procedure, shortened: as §1

[4] = tested on: pigweed (Amaranthus retroflexus); test: Test A preemergence
[5] = tested on: ragweed (common ragweed, Ambrosia elatior); test: Test A preemergence
Procedure, shortened: as §1

[6] = tested on: ryegrass, Italian (Italian ryegrass, Lolium multiflorum); test: Test A preemergence
Procedure, shortened: as §1

[7] = tested on: Galium (catchweed bedstraw, Galium aparine); test: Test A postemergence; conditions: postemergence
Procedure, shortened: as §1

Kochia (Kochia scoparia) [8] = test: Test A postemergence; conditions: postemergence
Procedure, shortened: as §1

[9] = tested on: barnyardgrass (Echinochloa crus-galli); test: Test A postemergence; conditions: postemergence
Procedure, shortened: as §1

[10] = tested on: blackgrass (Alopecurus myosuroides); test: Test A postemergence; conditions: postemergence
Procedure, shortened: as §1

corn (Zea mays) = test: Test A postemergence; conditions: postemergence
Procedure, shortened: as §1

[11] = tested on: giant foxtail (Setaria faberii); test: Test A postemergence; conditions: postemergence
Procedure, shortened: as §1

[12] = tested on: pigweed (Amaranthus retroflexus); test: Test A postemergence; conditions: postemergence
Procedure, shortened: as §1

[13] = tested on: ragweed (common ragweed, Ambrosia elatior); test: Test A postemergence; conditions: postemergence
Procedure, shortened: as §1

[14] = tested on: ryegrass, Italian (Italian ryegrass, Lolium multiflorum); test: Test A postemergence; conditions: postemergence
Procedure, shortened: as §1

[15] = tested on: wheat (Triticum aestivum); test: Test A postemergence; conditions: postemergence
Procedure, shortened: as §1

[16] = tested on: barnyardgrass (Echinochloa crus-galli); test: Test B flooded paddy test; conditions: Flood, 250 g ai/ha; for Plant response rating, Barnyardgrass: 0 to 100 scale where 0 is no effect and 100 is complete control, 13 to 15 d
Procedure, shortened: (§2)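 Flooding to 3 cm over soil accompanied treatment, which consisted of adding compound to the standing water around 2-leaf plants; depth was then maintained. Visual assessment versus controls followed at 13 to 15 d (scale 0–100, 0 meaning no effect).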

[17] = tested on: ducksalad (Heteranthera limosa); test: Test B flooded paddy test; conditions: Flood, 250 g ai/ha; for Plant response rating, Ducksalad: 0 to 100 scale where 0 is no effect and 100 is complete control, 13 to 15 d
Procedure, shortened: as §2

rice (Oryra sativa) = test: Test B flooded paddy test; conditions: Flood, 250 g ai/ha; for Plant response rating, Rice: 0 to 100 scale where 0 is no effect and 100 is complete control, 13 to 15 d
Procedure, shortened: as §2

[18] = tested on: sedge, umbrella (small-flower umbrella sedge, Cyperus difformis); test: Test B flooded paddy test; conditions: Flood, 250 g ai/ha
Procedure, shortened: as §2

[19] = 125 g ai/ha, preemergence, 0 to 100 scale (0 no effect, 100 complete control)
[20] = Preemergence, 500 g ai/ha, visual injury approx. 10 d
[21] = 125 g ai/ha, visual injury rating on 0 to 100 scale (0 no effect, 100 complete control), approx. 10 d
[22] = 500 g ai/ha, 0 to 100 scale, 0 no effect, 100 complete control
[23] = 125 g ai/ha, Preemergence, visual injury after approximately 10 d, 0 to 100 scale where 0 is no effect and 100 is complete control
[24] = 500 g ai/ha, preemergence, 0 to 100 scale, 0 = no effect, 100 = complete control
[25] = 125 g ai/ha, preemergence, visual rating after approx. 10 d, 0 to 100 scale where 0 is no effect and 100 is complete control
[26] = 125 g ai/ha, visual injury after approximately 10 d, 0 to 100 scale (0 no effect, 100 complete control)
[27] = 500 g ai/ha, visual injury, 0 to 100 scale (0 no effect, 100 complete control), approx. 10 d
[28] = 125 g ai/ha, visual rating after approx. 10 d, 0 to 100 scale (0 no effect, 100 complete control)

CN1CC(c2ccc3c(c2)OC(F)(F)O3)C(C(=O)Nc2ccccc2S(C)(=O)=O)C1=O (centres unmarked) [Compound 443]
80: Kochia plant response rating (0 to 100 scale, 0 is no effect, 100 is complete control) (Kochia (Kochia scoparia) [1]; [20]) | Plant response rating, Pigweed [4, 19] | Plant response rating, Ragweed [5, 19] | Ragweed plant response rating (0 to 100 scale, 0 is no effect, 100 is complete control) [5, 20] | Barnyardgrass plant response rating [9, 21] | Plant response rating, Barnyardgrass [9, 22] | Plant response rating, Corn (corn (Zea mays); [22]) | Foxtail, Giant plant response rating [11, 21] | Plant response rating, Foxtail, Giant [11, 22] | Plant response rating, Ducksalad [17]
90: Plant response rating, Barnyardgrass [2, 19] | Barnyardgrass plant response rating (0 to 100 scale, 0 is no effect, 100 is complete control) [2, 20] | Plant response rating, Foxtail, Giant [3, 19] | Foxtail, Giant plant response rating (0 to 100 scale, 0 is no effect, 100 is complete control) [3, 20] | Pigweed plant response rating (0 to 100 scale, 0 is no effect, 100 is complete control) [4, 20]
0: Plant response rating, Rice (rice (Oryra sativa)) | Plant response rating, Sedge, Umbrella ([18]; 0 to 100 scale where 0 is no effect and 100 is complete control, 13 to 15 d)
70: Plant response rating, Blackgrass [10, 22] | Plant response rating, Barnyardgrass [16]
20: Kochia plant response rating (Kochia (Kochia scoparia) [8]; [21]) | Pigweed plant response rating [12, 21] | Ragweed plant response rating [13, 21] | Plant response rating, Ragweed [13, 22]
60: Blackgrass plant response rating [10, 21] | Plant response rating, Ryegrass, Italian [14, 22] | Plant response rating, Wheat [15, 22]
30: Plant response rating, Kochia (Kochia (Kochia scoparia) [1]; [19]) | Plant response rating, Kochia (Kochia (Kochia scoparia) [8]; [22]) | Ryegrass, Italian plant response rating [14, 21]
40: Plant response rating, Ryegrass, Italian [6, 19] | Galium plant response rating [7, 21] | Corn plant response rating (corn (Zea mays); [21]) | Wheat plant response rating [15, 21]
50: Ryegrass, Italian plant response rating (0 to 100 scale, 0 is no effect, 100 is complete control) [6, 20] | Plant response rating, Galium [7, 22] | Plant response rating, Pigweed [12, 22]

CN1C[C@H](c2cccc(OC(F)(F)C(F)F)c2)[C@@H](C(=O)Nc2ccccc2[S+](C)[O-])C1=O (some centres unmarked) [Compound 863]
80%: pest or weed control at 125 g/ha (Kochia (Kochia scoparia) [1]; Bassia scoparia, pre-emergence, 240 h, 125 g ai/ha, preemergence, 0 to 100 scale where 0 is no effect and 100 is complete control, read-out: Kochia plant response rating)
20%: pest or weed control at 125 g/ha ([11]; Setaria faberi, post-emergence, 240 h, 125 g ai/ha, visual injury rating after approximately 10 d, read-out: Foxtail, Giant plant response rating (0 to 100 scale, 0 no effect, 100 complete control))
0%: pest or weed control at 125 g/ha ([5]; Ambrosia artemisiifolia, pre-emergence, 240 h, 125 g ai/ha, preemergence, 0 to 100 scale where 0 is no effect and 100 is complete control, read-out: Ragweed plant response rating) | pest or weed control at 125 g/ha ([6]; Lolium multiflorum, pre-emergence, 240 h, 125 g ai/ha, preemergence, 0 to 100 scale where 0 is no effect and 100 is complete control, read-out: Ryegrass, Italian plant response rating) | pest or weed control at 125 g/ha ([10]; Alopecurus myosuroides, post-emergence, 240 h, 125 g ai/ha, visual injury rating after approximately 10 d, read-out: Blackgrass plant response rating (0 to 100 scale, 0 no effect, 100 complete control)) | pest or weed control at 125 g/ha ([13]; Ambrosia artemisiifolia, post-emergence, 240 h, 125 g ai/ha, visual injury rating after approximately 10 d, read-out: Ragweed plant response rating (0 to 100 scale, 0 no effect, 100 complete control)) | pest or weed control at 125 g/ha ([14]; Lolium multiflorum, post-emergence, 240 h, 125 g ai/ha, visual injury rating after approximately 10 d, read-out: Ryegrass, Italian plant response rating (0 to 100 scale, 0 no effect, 100 complete control)) | plant injury at 125 g/ha ([15]; Triticum aestivum, post-emergence, 240 h, 125 g ai/ha, visual injury rating after approximately 10 d, read-out: Wheat plant response rating (0 to 100 scale, 0 no effect, 100 complete control)) | pest or weed control at 250 g/ha ([16]; Echinochloa crus-galli, scale of 0 to 100 where 0 is no effect and 100 is complete control, read-out: Barnyardgrass plant response rating) | pest or weed control at 250 g/ha ([17]; Heteranthera limosa, scale of 0 to 100 where 0 is no effect and 100 is complete control, read-out: Ducksalad plant response rating) | pest or weed control at 250 g/ha (rice (Oryra sativa); Oryza sativa, scale of 0 to 100 where 0 is no effect and 100 is complete control, read-out: Rice plant response rating) | pest or weed control at 250 g/ha ([18]; Cyperus difformis, scale of 0 to 100 where 0 is no effect and 100 is complete control, read-out: Sedge, Umbrella plant response rating)
30%: pest or weed control at 125 g/ha ([7]; Galium, post-emergence, 240 h, 125 g ai/ha, visual injury rating after approximately 10 d, read-out: Galium plant response rating (0 to 100 scale, 0 no effect, 100 complete control)) | plant injury at 125 g/ha (corn (Zea mays); Zea mays, post-emergence, 240 h, 125 g ai/ha, visual injury rating after approximately 10 d, read-out: Corn plant response rating (0 to 100 scale, 0 no effect, 100 complete control))
90%: pest or weed control at 125 g/ha ([3]; Setaria faberi, pre-emergence, 240 h, 125 g ai/ha, preemergence, 0 to 100 scale where 0 is no effect and 100 is complete control, read-out: Foxtail, Giant plant response rating)
40%: pest or weed control at 125 g/ha (Kochia (Kochia scoparia) [8]; Bassia scoparia, post-emergence, 240 h, 125 g ai/ha, visual injury rating after approximately 10 d, read-out: Kochia plant response rating (0 to 100 scale, 0 no effect, 100 complete control))
50%: pest or weed control at 125 g/ha ([2]; Echinochloa crus-galli, pre-emergence, 240 h, 125 g ai/ha, preemergence, 0 to 100 scale where 0 is no effect and 100 is complete control, read-out: Barnyardgrass plant response rating) | pest or weed control at 125 g/ha ([12]; Amaranthus retroflexus, post-emergence, 240 h, 125 g ai/ha, visual injury rating after approximately 10 d, read-out: Pigweed plant response rating (0 to 100 scale, 0 no effect, 100 complete control))
70%: pest or weed control at 125 g/ha ([4]; Amaranthus retroflexus, pre-emergence, 240 h, 125 g ai/ha, preemergence, 0 to 100 scale where 0 is no effect and 100 is complete control, read-out: Pigweed plant response rating) | pest or weed control at 125 g/ha ([9]; Echinochloa crus-galli, post-emergence, 240 h, 125 g ai/ha, visual injury rating after approximately 10 d, read-out: Barnyardgrass plant response rating (0 to 100 scale, 0 no effect, 100 complete control))

CN1CC(c2ccc(C(C)(F)F)cc2)C(C(=O)Nc2ccc(F)cc2F)C1=O (centres unmarked) [Compound 693]
60: Plant response rating, Ragweed [5, 24] | Plant response rating, Ryegrass, Italian [6, 25] | Plant response rating, Galium [7, 26] | Plant response rating, Kochia (Kochia (Kochia scoparia) [8]; [26])
70: Plant response rating, Pigweed [4, 25] | Plant response rating, Ryegrass, Italian [6, 24] | Plant response rating, Galium [7, 27] | Plant response rating, Kochia (Kochia (Kochia scoparia) [8]; [27]) | Plant response rating, Barnyardgrass [9, 28] | Plant response rating, Corn (corn (Zea mays); [27]) | Plant response rating, Pigweed [12, 27] | Plant response rating, Ryegrass, Italian [14, 27] | Plant response rating, Ducksalad [17]
0: Plant response rating, Ragweed [13, 26] | Plant response rating, Wheat [15, 26] | Sedge, Umbrella plant response rating ([18]; scale of 0 to 100 where 0 is no effect and 100 is complete control)
75: Plant response rating, Barnyardgrass [16]
40: Plant response rating, Corn (corn (Zea mays); [26])
10: Plant response rating, Blackgrass [10, 28] | Plant response rating, Pigweed [12, 26] | Plant response rating, Ragweed [13, 27]
20: Plant response rating, Rice (rice (Oryra sativa))
80: Plant response rating, Kochia (Kochia (Kochia scoparia) [1]; [23]) | Plant response rating, Barnyardgrass [2, 23] | Plant response rating, Pigweed [4, 24] | Plant response rating, Barnyardgrass [9, 27] | Plant response rating, Foxtail, Giant [11, 26] | Plant response rating, Foxtail, Giant [11, 27]
50: Plant response rating, Ragweed [5, 25] | Plant response rating, Blackgrass [10, 27] | Plant response rating, Ryegrass, Italian [14, 26] | Plant response rating, Wheat [15, 27]
90: Plant response rating, Kochia (Kochia (Kochia scoparia) [1]; [24]) | Plant response rating, Barnyardgrass [2, 24] | Plant response rating, Foxtail, Giant [3, 23] | Plant response rating, Foxtail, Giant [3, 24]

Reference: patent US12077503B2, “Substituted cyclic amides and their use as herbicides” (FMC CORPORATION, priority 2015, dated 2024)
